Measured values reported in patent publication US9376442B2, “Methylpyrrolopyrimidinecarboxamides” (Takeda GmbH, priority 2009, dated 2016).

target: T1, PDE5A1 (Homo sapiens, UniProt O76074); test: Inhibition of type 5 phosphodiesterase (PDE5) activity, modified SPA test with human platelet lysate; assay type: biochemical; details: 0.5 μM cGMP, read-out: PDE5A1 inhibitory values [measured as −log IC50 (mol/l)] (converted)
T1 construct: from tissue; host or cells: human platelets from fresh donor blood (10,000 x g supernatant of sonicated lysate)
Summary of the method: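 Scintillation proximity assay with [3H]cGMP tracer at 0.5 μM total cGMP, stopped after 15 min with beads containing IBMX. PDE3 and PDE2 activities suppressed with motapizone (1 μM) and a PDE2 inhibitor (10 nM). Human platelet supernatant served as the enzyme, with compound preincubated 5 min at 37° C; IC50 values from concentration-effect curves.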

Row | SMILES | IC50
1 | COCC(=O)N1CC[C@@H](NC(=O)c2c(C)[nH]c3c(-c4cc(F)c(OC)cc4OCC4CC4)ncnc23)C1 [Example E188, 4-[2-(Cyclopropylmethoxy)-5-fluoro-4-methoxyphenyl]-N-[(3R)-1-(methoxyacetyl)pyrrolidin-3-yl]-6-methyl-5H-pyrrolo[3,2-d]pyrimidine-7-carboxamide] | < 1 nM
2 | Cc1[nH]c2c(-c3c(OCC4CC4)ccc4c3OCO4)ncnc2c1C(=O)NC1CCN(C(=O)CO)CC1 [Example F1, 4-[5-(Cyclopropylmethoxy)-1,3-benzodioxol-4-yl]-N-(1-glycoloylpiperidin-4-yl)-6-methyl-5H-pyrrolo[3,2-d]pyrimidine-7-carboxamide] | < 1 nM
3 | Cc1[nH]c2c(-c3c(OCC4CC4)ccc4c3OCO4)ncnc2c1C(=O)NC1CCN(C(=O)[C@H](C)O)CC1 [Example F2, 4-[5-(Cyclopropylmethoxy)-1,3-benzodioxol-4-yl]-N-{1-[(2S)-2-hydroxypropanoyl]piperidin-4-yl}-6-methyl-5H-pyrrolo[3,2-d]pyrimidine-7-carboxamide] | < 1 nM
4 | Cc1[nH]c2c(-c3c(OCC4CC4)ccc4c3OCO4)ncnc2c1C(=O)N[C@H]1CC[C@H](NC(=O)CO)CC1 [Example F3, 4-[5-(Cyclopropylmethoxy)-1,3-benzodioxol-4-yl]-N-[trans-4-(glycoloylamino)cyclohexyl]-6-methyl-5H-pyrrolo[3,2-d]pyrimidine-7-carboxamide] | < 1 nM
5 | Cc1[nH]c2c(-c3c(OCC4CC4)ccc4c3OCO4)ncnc2c1C(=O)N[C@H]1CC[C@H](NC(=O)[C@H](C)O)CC1 [Example F4, 4-[5-(cyclopropylmethoxy)-1,3-benzodioxol-4-yl]-N-(trans-4-{[(2S)-2-hydroxypropanoyl]amino}cyclohexyl)-6-methyl-5H-pyrrolo[3,2-d]pyrimidine-7-carboxamide] | < 1 nM
6 | Cc1[nH]c2c(-c3c(OCC4CC4)ccc4c3OCO4)ncnc2c1C(=O)N[C@H]1CC[C@@H](NC(=O)CO)CC1 [Example F5, 4-[5-(Cyclopropylmethoxy)-1,3-benzodioxol-4-yl]-N-[cis-4-(glycoloylamino)cyclohexyl]-6-methyl-5H-pyrrolo[3,2-d]pyrimidine-7-carboxamide] | < 1 nM
7 | Cc1[nH]c2c(-c3c(OCC4CC4)ccc4c3OCO4)ncnc2c1C(=O)N[C@H]1CC[C@@H](NC(=O)[C@H](C)O)CC1 [Example F6, 4-[5-(Cyclopropylmethoxy)-1,3-benzodioxol-4-yl]-N-(cis-4-{[(2S)-2-hydroxypropanoyl]amino}cyclohexyl)-6-methyl-5H-pyrrolo[3,2-d]pyrimidine-7-carboxamide] | < 1 nM
8 | Cc1[nH]c2c(-c3c(OCC4CC4)ccc4c3OCO4)ncnc2c1C(=O)N[C@@H]1CCN(C(=O)CO)C1 [Example F7, 4-[5-(Cyclopropylmethoxy)-1,3-benzodioxol-4-yl]-N-[(3R)-1-glycoloylpyrrolidin-3-yl]-6-methyl-5H-pyrrolo[3,2-d]pyrimidine-7-carboxamide] | < 1 nM
9 | Cc1[nH]c2c(-c3c(OCC4CC4)ccc4c3OCO4)ncnc2c1C(=O)N[C@@H]1CCN(C(=O)[C@H](C)O)C1 [Example F8, 4-[5-(Cyclopropylmethoxy)-1,3-benzodioxol-4-yl]-N-{(3R)-1-[(2S)-2-hydroxypropanoyl]pyrrolidin-3-yl}-6-methyl-5H-pyrrolo[3,2-d]pyrimidine-7-carboxamide] | < 1 nM
10 | Cc1[nH]c2c(-c3ccc(F)cc3OCC3CC3)ncnc2c1C(=O)NC1CCN(C(=O)CO)CC1 [Example F11, 4-[2-(Cyclopropylmethoxy)-4-fluorophenyl]-N-(1-glycoloylpiperidin-4-yl)-6-methyl-5H-pyrrolo[3,2-d]pyrimidine-7-carboxamide] | < 1 nM
11 | Cc1[nH]c2c(-c3ccc(F)cc3OCC3CC3)ncnc2c1C(=O)NC1CCN(C(=O)[C@H](C)O)CC1 [Example F12, 4-[2-(Cyclopropylmethoxy)-4-fluorophenyl]-N-{1-[(2S)-2-hydroxypropanoyl]piperidin-4-yl}-6-methyl-5H-pyrrolo[3,2-d]pyrimidine-7-carboxamide] | < 1 nM
12 | Cc1[nH]c2c(-c3ccc(F)cc3OCC3CC3)ncnc2c1C(=O)N[C@H]1CC[C@H](NC(=O)CO)CC1 [Example F13, 4-[2-(Cyclopropylmethoxy)-4-fluorophenyl]-N-[trans-4-(glycoloylamino)cyclohexyl]-6-methyl-5H-pyrrolo[3,2-d]pyrimidine-7-carboxamide] | < 1 nM
13 | Cc1[nH]c2c(-c3ccc(F)cc3OCC3CC3)ncnc2c1C(=O)N[C@H]1CC[C@H](NC(=O)[C@H](C)O)CC1 [Example F14, 4-[2-(Cyclopropylmethoxy)-4-fluorophenyl]-N-(trans-4-{[(2S)-2-hydroxypropanoyl]amino}cyclohexyl)-6-methyl-5H-pyrrolo[3,2-d]pyrimidine-7-carboxamide] | < 1 nM
14 | Cc1[nH]c2c(-c3ccc(F)cc3OCC3CC3)ncnc2c1C(=O)N[C@H]1CC[C@@H](NC(=O)CO)CC1 [Example F15, 4-[2-(cyclopropylmethoxy)-4-fluorophenyl]-N-[cis-4-(glycoloylamino)cyclohexyl]-6-methyl-5H-pyrrolo[3,2-d]pyrimidine-7-carboxamide] | < 1 nM
15 | Cc1[nH]c2c(-c3ccc(F)cc3OCC3CC3)ncnc2c1C(=O)N[C@H]1CC[C@@H](NC(=O)[C@H](C)O)CC1 [Example F16, 4-[2-(Cyclopropylmethoxy)-4-fluorophenyl]-N-(cis-4-{[(2S)-2-hydroxypropanoyl]amino}cyclohexyl)-6-methyl-5H-pyrrolo[3,2-d]pyrimidine-7-carboxamide] | < 1 nM
16 | Cc1[nH]c2c(-c3ccc(F)cc3OCC3CC3)ncnc2c1C(=O)N[C@@H]1CCN(C(=O)CO)C1 [Example F17, 4-[2-(Cyclopropylmethoxy)-4-fluorophenyl]-N-[(3R)-1-(hydroxyacetyl)pyrrolidin-3-yl]-6-methyl-5H-pyrrolo[3,2-d]pyrimidine-7-carboxamide] | 1 to 10 nM
17 | Cc1[nH]c2c(-c3ccc(F)cc3OCC3CC3)ncnc2c1C(=O)N[C@@H]1CCN(C(=O)[C@H](C)O)C1 [Example F18, 4-[2-(cyclopropylmethoxy)-4-fluorophenyl]-N-{(3R)-1-[(2S)-2-hydroxypropanoyl]pyrrolidin-3-yl}-6-methyl-5H-pyrrolo[3,2-d]pyrimidine-7-carboxamide] | < 1 nM
18 | Cc1[nH]c2c(-c3cc(F)ccc3OCC3CC3)ncnc2c1C(=O)N[C@@H]1CCN(C(=O)CO)C1 [Example F28, 4-[2-(Cyclopropylmethoxy)-5-fluorophenyl]-N-[(3R)-1-(hydroxyacetyl)pyrrolidin-3-yl]-6-methyl-5H-pyrrolo[3,2-d]pyrimidine-7-carboxamide] | 1 to 10 nM
19 | Cc1[nH]c2c(-c3cc(F)ccc3OCC3CC3)ncnc2c1C(=O)N[C@@H]1CCN(C(=O)[C@H](C)O)C1 [Example F29, 4-[2-(Cyclopropylmethoxy)-5-fluorophenyl]-N-{(3R)-1-[(2S)-2-hydroxypropanoyl]pyrrolidin-3-yl}-6-methyl-5H-pyrrolo[3,2-d]pyrimidine-7-carboxamide] | 1 to 10 nM
20 | CCOc1ccc(F)cc1-c1ncnc2c(C(=O)NC3CCN(C(=O)CO)CC3)c(C)[nH]c12 [Example F32] | 1 to 10 nM
21 | CCOc1ccc(F)cc1-c1ncnc2c(C(=O)NC3CCN(C(=O)[C@H](C)O)CC3)c(C)[nH]c12 [Example F33, 4-(2-Ethoxy-5-fluorophenyl)-N-{1-[(2S)-2-hydroxypropanoyl]piperidin-4-yl}-6-methyl-5H-pyrrolo[3,2-d]pyrimidine-7-carboxamide] | 1 to 10 nM
22 | COc1ccc(-c2ncnc3c(C(=O)NC4CCN(C(=O)CO)CC4)c(C)[nH]c23)c(OCC2CC2)c1 [Example F34, 4-[2-(Cyclopropylmethoxy)-4-methoxyphenyl]-N-(1-glycoloylpiperidin-4-yl)-6-methyl-5H-pyrrolo[3,2-d]pyrimidine-7-carboxamide] | < 1 nM
23 | COc1ccc(-c2ncnc3c(C(=O)NC4CCN(C(=O)[C@H](C)O)CC4)c(C)[nH]c23)c(OCC2CC2)c1 [Example F35, 4-[2-(Cyclopropylmethoxy)-4-methoxyphenyl]-N-{1-[(2S)-2-hydroxypropanoyl]piperidin-4-yl}-6-methyl-5H-pyrrolo[3,2-d]pyrimidine-7-carboxamide] | < 1 nM
24 | COc1ccc(-c2ncnc3c(C(=O)N[C@H]4CC[C@H](NC(=O)[C@H](C)O)CC4)c(C)[nH]c23)c(OCC2CC2)c1 [Example F36, 4-[2-(Cyclopropylmethoxy)-4-methoxyphenyl]-N-(trans-4-{[(2S)-2-hydroxypropanoyl]amino}cyclohexyl)-6-methyl-5H-pyrrolo[3,2-d]pyrimidine-7-carboxamide] | < 1 nM
25 | COc1ccc(-c2ncnc3c(C(=O)N[C@@H]4CCN(C(=O)CO)C4)c(C)[nH]c23)c(OCC2CC2)c1 [Example F37, 4-[2-(Cyclopropylmethoxy)-4-methoxyphenyl]-N-[(3R)-1-glycoloylpyrrolidin-3-yl]-6-methyl-5H-pyrrolo[3,2-d]pyrimidine-7-carboxamide] | < 1 nM
26 | COc1ccc(-c2ncnc3c(C(=O)N[C@@H]4CCN(C(=O)[C@H](C)O)C4)c(C)[nH]c23)c(OCC2CC2)c1 [Example F38, 4-[2-(Cyclopropylmethoxy)-4-methoxyphenyl]-N-{(3R)-1-[(2S)-2-hydroxypropanoyl]pyrrolidin-3-yl}-6-methyl-5H-pyrrolo[3,2-d]pyrimidine-7-carboxamide] | < 1 nM
27 | COc1ccc(OCC2CC2)c(-c2ncnc3c(C(=O)N[C@@H]4CCN(C(=O)CO)C4)c(C)[nH]c23)c1 [Example F47, 4-[2-(cyclopropylmethoxy)-5-methoxyphenyl]-N-[(3R)-1-glycoloylpyrrolidin-3-yl]-6-methyl-5H-pyrrolo[3,2-d]pyrimidine-7-carboxamide] | < 1 nM
